Measurements published in patent US20060110401A1, “Mixture of peptides from c and ns3 proteins of the hepatitis c virus and applications thereof” (priority 2002, published 2006).
Where two headings read alike, the source gives them in different places. Residues, ends and D or L forms follow the SMILES beside them.

What was measured:
HLA-DRB4 (DRB4*0101) = biological target: T1, HLA-DRB4 (DRB4*0101) (Homo sapiens, UniProt P01903+P13762, G164S); test: biochemical; type: binding
T1 construct: endogenous in cells; host or cells: homozygous EBV-transformed human B lymphocyte lines; immunopurified with antibody L243

HLA-DR1 (DRB1*0101) = biological target: T2, HLA-DR1 (DRB1*0101) (Homo sapiens, UniProt P01903+P01911, A100R/D57E/F55L/F60I/F76Y/I96L/L162R/M171V/P40L/Q125E/R42F/V115G/Y59C); test: biochemical; type: binding; details: DRB1*0101
T2 construct: endogenous in cells; host or cells: homozygous EBV-transformed human B lymphocyte lines; immunopurified with antibody L243

HLA-DR7 (DRB1*0701) = HLA-DR7 (DRB1*0701) (Homo sapiens, UniProt P01903+P01911, A100R/A102G/A103Q/D57E/D86V/E43K/F76Y/K127E/L162R/M171V/P40G/Q125H/Q99D/R33Q/R42Y/R54Q/S133A/S66F/T210M/V115G/Y107V/Y59L/Y89S); test: biochemical; type: binding; details: read-out: binds with good affinity to DR7
DRB4 = test: DRB4
Text: Table printed on a drawing sheet, Figure 2
Where the first naming reader finds the target: head: DRB4

HLA-DRB5 (DRB5*0101) = biological target: T3, HLA-DRB5 (DRB5*0101) (Homo sapiens, UniProt P01903+Q30154); test: biochemical; type: binding; details: read-out: binds with good affinity to DRB5
T3 construct: endogenous in cells; host or cells: homozygous EBV-transformed human B lymphocyte lines; immunopurified with antibody L243

HLA-DR15 (DRB1*1501) = biological target: T4, HLA-DR15 (DRB1*1501) (Homo sapiens, UniProt P01903+P01911); test: biochemical; type: binding; details: DRB1*1501; read-out: binds with good affinity to DR15
T4 construct: endogenous in cells; host or cells: homozygous EBV-transformed human B lymphocyte lines; immunopurified with antibody L243

DR1 = test: DR1
DR4 = test: DR4
DP402 = test: DP402
HLA-DR11 (DRB1*1101) = HLA-DR11 (DRB1*1101) (Homo sapiens, UniProt P01903+P01911, A100R/A169T/A87E/I96F/K41T/L162R/M171V/P40S/Q125H/Q178H/Q39Y/Q99D/R42S/S66Y/T262R/V115G/W38E); test: biochemical; type: binding; details: read-out: binds with good affinity to DR11
DRB3 = test: DRB3
DRB5 = test: DRB5
DP401 = test: DP401
[1] = tested on: T lymphocytes derived from PBMCs from patients chronically infected with HCV; type: cell-based, human; details: supernatant 48 h, —: not detected
DR15 = test: DR15
[2] = read-out: binds with good affinity to DR1

Chain of HLA-DR11 (DRB1*1101) (P01903 26-254 limits assumed, other chains not shown): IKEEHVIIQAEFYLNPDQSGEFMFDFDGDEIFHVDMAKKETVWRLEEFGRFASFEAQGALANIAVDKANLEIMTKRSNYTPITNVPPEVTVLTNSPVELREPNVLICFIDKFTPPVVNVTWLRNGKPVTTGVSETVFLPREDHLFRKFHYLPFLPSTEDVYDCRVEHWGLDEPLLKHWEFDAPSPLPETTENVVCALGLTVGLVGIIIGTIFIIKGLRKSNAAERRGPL

Row | Structure (SMILES) | IC50 (HLA-DR7 (DRB1*0701)) [nM] | IC50 (DRB4) [nM] | IC50 (HLA-DRB5 (DRB5*0101)) [nM] | IC50 (HLA-DR15 (DRB1*1501)) [nM] | IC50 (DR1) [nM] | IC50 (HLA-DR1 (DRB1*0101); [2]) [nM] | IC50 (DP402) [nM] | IC50 (DP401) [nM] | other results
1 | CC[C@H](C)[C@H](NC(=O)[C@H](Cc1c[nH]cn1)NC(=O)[C@@H](NC(=O)[C@H](CC(C)C)NC(=O)CNC(=O)[C@@H](N)[C@@H](C)O)[C@@H](C)O)C(=O)N[C@@H](CC(=O)O)C(=O)N[C@@H](C)C(=O)N[C@@H](Cc1c[nH]cn1)C(=O)N[C@@H](Cc1ccccc1)C(=O)N[C@@H](CC(C)C)C(=O)N[C@@H](CO)C(=O)N[C@@H](CCC(N)=O)C(=O)N[C@H](C(=O)N[C@@H](CCCCN)C(=O)O)[C@@H](C)O [29N 1563-1577] |  |  |  |  |  |  |  |  | IC50 (HLA-DRB4 (DRB4*0101); tracer E2/E168, read-out: IC50, binding to HLA-DRB4): 40000 nM; IC50 (HLA-DR1 (DRB1*0101); competition with biotinylated tracer HA 306-318, read-out: IC50, binding to HLA-DR1): 8 nM
2 | CC[C@H](C)[C@H](NC(=O)[C@@H]1CCCN1C(=O)[C@H](CCCNC(=N)N)NC(=O)[C@@H]1CCCN1C(=O)[C@H](CO)NC(=O)[C@H](CC(C)C)NC(=O)[C@H](CC(C)C)NC(=O)[C@H](CO)NC(=O)CNC(=O)[C@@H](N)CCCNC(=N)N)C(=O)N[C@@H](CO)C(=O)N[C@@H](Cc1ccc(O)cc1)C(=O)N[C@@H](CC(C)C)C(=O)N[C@@H](CCCCN)C(=O)NCC(=O)N[C@@H](CO)C(=O)N[C@@H](CO)C(=O)NCC(=O)NCC(=O)N1CCC[C@H]1C(=O)N[C@@H](CC(C)C)C(=O)N[C@@H](CC(C)C)C(=O)N[C@@H](C)C(=O)N1CCC[C@H]1C(=O)O [14N 1149-1172] (H-RGSLLSPRPISYLKGSSGGPLLAP-OH; N-terminus and C-terminus assumed) | < 1000 | 100 | < 1000 | < 1000 | 8 | < 1000 | > 100000 |  | IC50 (HLA-DRB4 (DRB4*0101); read-out: binds with good affinity to DRB4): < 1000 nM; IC50 (DR4): 9000 nM
3 | CC[C@H](C)[C@H](NC(=O)[C@@H](NC(=O)[C@H](CCCNC(=N)N)NC(=O)[C@@H](NC(=O)CNC(=O)[C@H](C)NC(=O)CNC(=O)[C@H](Cc1c[nH]cn1)NC(=O)[C@H](Cc1ccc(O)cc1)NC(=O)[C@@H](NC(=O)[C@@H](NC(=O)[C@H](Cc1c[nH]c2ccccc12)NC(=O)[C@H](C)NC(=O)[C@@H](NC(=O)CN)C(C)C)[C@@H](C)O)C(C)C)[C@@H](C)O)[C@@H](C)O)C(=O)N[C@@H](C)C(=O)N[C@@H](CO)C(=O)N1CCC[C@H]1C(=O)O [11N 1076-1093] (H-GVAWTVYHGAGTRTIASP-OH; N-terminus and C-terminus assumed) | < 1000 | 60000 | < 1000 | < 1000 |  | < 1000 |  |  | IC50 (HLA-DR11 (DRB1*1101)): < 1000 nM; IC50 (DRB3): 6000 nM; IC50 (DRB5): 100 nM
4 | CC[C@H](C)[C@H](NC(=O)CNC(=O)[C@H](CC(C)C)NC(=O)[C@H](C)NC(=O)[C@@H](NC(=O)[C@H](CC(C)C)NC(=O)[C@H](CCCCN)NC(=O)[C@H](C)NC(=O)[C@H](C)N)C(C)C)C(=O)N[C@@H](CC(N)=O)C(=O)N[C@@H](C)C(=O)N[C@H](C(=O)N[C@@H](C)C(=O)N[C@@H](Cc1ccc(O)cc1)C(=O)N[C@@H](Cc1ccc(O)cc1)C(=O)N[C@@H](CCCNC(=N)N)C(=O)NCC(=O)N[C@@H](CC(C)C)C(=O)N[C@@H](CC(=O)O)C(=O)N[C@H](C(=O)N[C@@H](CO)C(=O)N[C@H](C(=O)N[C@H](C(=O)N1CCC[C@H]1C(=O)N[C@H](C(=O)N[C@@H](CO)C(=O)NCC(=O)N[C@@H](CC(=O)O)C(=O)N[C@H](C(=O)O)C(C)C)[C@@H](C)O)[C@@H](C)CC)C(C)C)C(C)C)C(C)C [24N 1404-1432] |  |  |  |  | 50 |  | 7040 | 32700 | 
5 | CC[C@H](C)[C@H](NC(=O)[C@H](Cc1ccccc1)NC(=O)[C@H](CC(=O)O)NC(=O)[C@@H](NC(=O)[C@H](C)NC(=O)[C@H](CCCCN)NC(=O)[C@H](C)N)C(C)C)C(=O)N1CCC[C@H]1C(=O)N[C@H](C(=O)N[C@@H](CCC(=O)O)C(=O)N[C@@H](CC(N)=O)C(=O)N[C@@H](CC(C)C)C(=O)N[C@@H](CCC(=O)O)C(=O)N[C@H](C(=O)N[C@H](C(=O)N[C@@H](CCSC)C(=O)N[C@@H](CCCNC(=N)N)C(=O)N[C@@H](CO)C(=O)N1CCC[C@H]1C(=O)N[C@H](C(=O)N[C@@H](Cc1ccccc1)C(=O)N[C@H](C(=O)N[C@@H](CC(=O)O)C(=O)O)[C@@H](C)O)C(C)C)[C@@H](C)O)[C@@H](C)O)C(C)C [16N 1190-1212] |  |  |  |  | 600 |  | 1440 | 4110 | IL2 ([1]; patient 067): — 85 pg/ml; IL2 ([1]; patient 078): — 17 pg/ml; IL2 ([1]; patient 093): 5 pg/mL; IL2 ([1]; patient 659): 18 pg/mL; IL2 ([1]; patient 815): 72 pg/mL; IL10 ([1]; patient 815): 123 pg/mL; IC50 (DR15): 700 nM
